{
  "source": "patent US9161543B2",
  "about": "“Biocontrol through the use of chlorine-stabilizer blends” (NALCO COMPANY, priority 2011, dated 2015)",
  "test": "Blending of stabilizer and sodium hypochlorite: residual oxidant (TRO, FRO) and yield",
  "assay_type": "physicochemical",
  "details": "Molar Ratio Cl2:N2 4:1",
  "protocol": "A number of biocide formulations were prepared and were applied to samples of process water from a paper mill.",
  "data": [
    {"smiles": "NS(=O)(=O)O", "note": "[sulfamic acid]", "values": [
      {"measurement": "FRO (free residual oxidant)", "setting": "Caustic in Bleach = 0.5%", "result": 1219, "unit": "ppm"},
      {"measurement": "FRO/TRO", "setting": "Caustic in Bleach = 0.5%", "result": 18.61, "unit": "%"},
      {"measurement": "TRO (total residual oxidant)", "setting": "Caustic in Bleach = 0.5%", "result": 6550, "unit": "ppm"},
      {"measurement": "TRO Yield", "setting": "Caustic in Bleach = 0.5%", "result": 80.93, "unit": "%"},
      {"measurement": "FRO (free residual oxidant)", "setting": "Caustic in Bleach = 3.2%", "result": 1450, "unit": "ppm"},
      {"measurement": "FRO/TRO", "setting": "Caustic in Bleach = 3.2%", "result": 23.02, "unit": "%"},
      {"measurement": "TRO (total residual oxidant)", "setting": "Caustic in Bleach = 3.2%", "result": 6300, "unit": "ppm"},
      {"measurement": "TRO Yield", "setting": "Caustic in Bleach = 3.2%", "result": 77.84, "unit": "%"}
    ]}
  ]
}
